Marks after values point to notes of the source that are not given here.
Assays:
SD rats = test: Oral glucose tolerance test (OGTT) in rats; single injection; 1 mg/kg; type: in vivo; details: for Blood Glucose AUC (mg/dL*min) Mean: 1 mg/Kg
Procedure, shortened: (§1)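 SD rats (4 per group), fasted 12 h, received a single 1 mg/kg subcutaneous dose of test compound or semaglutide; oral glucose 2 g/kg given at 22, 166 and 334 h post dose. Glucose read by meter at 0–120 min, AUC0-120 by t test; body weight and food intake recorded.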

[1] = Food intake and body weight recorded in the rat OGTT study; type: in vivo, rats; details: for Body Weight Change (%) Mean / Food Consumption (g) Mean: 1 mg/Kg
Procedure, shortened: as §1

[2] = tested on: db/db type 2 diabetic mice; test: Reduction of HbA1c in db/db type 2 diabetic mice after chronic treatment (27 day study); type: in vivo; details: db/db mice
Procedure: This study was done in diabetic mouse model. The animals were divided into three treatment groups—a diabetic control group, a test group and a semaglutide treatment group. Compound 1 of the present disclosure was injected subcutaneously at 0.3 mg/kg dose once a day for 3 days (qd*3) followed by 0.1 mg/kg dose every alternate day for 7 doses (q2d*7) followed by 0.1 mg/kg dose once every four days for two dose cycles (q4d*2). The same dosage regimen was administered in semaglutide treatment group. Measurements of blood glucose levels and body weight were done daily. % HbA1c was measured on Day 0, day 7, day 14 and day 27 by column chromatography. Cumulative food intake was calculated on day 27. % HbA1C data was analyzed by two way ANOVA followed by Bonferroni's posttests using PRISM (Graph Pad version 5.03).

[3] = tested on: db/db mice (diabetic mouse model); test: Separate db/db diabetic mouse study, q2d*15 up to day 28, recovery period day 29 to day 45; type: in vivo
Procedure, shortened: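 db/db diabetic mice received test compounds subcutaneously at 3.04 or 6.078 nM dose every other day to day 28 (q2d*15), alongside diabetic control and semaglutide groups on the same regimen. Blood glucose and body weight were measured daily, with %HbA1c and insulin on days 0, 14 and 29. An untreated recovery phase ran from day 29 to day 45, with final measurements on day 45.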

[4] = rats, 1 mg/kg s.c. single injection, Day 2
[5] = rats, 1 mg/kg s.c. single injection, Day 4
[6] = recovery period, earlier dose 12.155 nM
[7] = recovery study, day 45, earlier dose 12.155 nM

## Semaglutide [reference compound]
SD rats; OGTT, 1 mg/Kg dose, after 24 hrs
  % Glucose Reduction (Blood Glucose AUC0-120 min): 49.3%
SD rats; OGTT, 22 hr, Exp. 1
  Blood Glucose AUC (mg/dL*min) Mean: 5458.0 mg·min/dL
SD rats; OGTT, 22 hr, Exp. 2
  Blood Glucose AUC (mg/dL*min) Mean: 4258 mg·min/dL
SD rats; OGTT, 168 hr, Exp. 1
  Blood Glucose AUC (mg/dL*min) Mean: 12785.0 mg·min/dL
SD rats; OGTT, 168 hr, Exp. 2
  Blood Glucose AUC (mg/dL*min) Mean: 7410 mg·min/dL
SD rats; OGTT, 336 hr, Exp. 1
  Blood Glucose AUC (mg/dL*min) Mean: 16223.0 mg·min/dL
SD rats; OGTT, 336 hr, Exp. 2
  Blood Glucose AUC (mg/dL*min) Mean: 8023.0 mg·min/dL
SD rats; after 168 hrs of injection, 1 mg/kg
  reduction in blood glucose AUC: about 25%
[1]; 48 h, Exp. 1
  Body Weight Change (%) Mean: −6.5%
  Food Consumption (g) Mean: 17.5 g
[1]; 48 h, Exp. 2
  Body Weight Change (%) Mean: −8.7%
  Food Consumption (g) Mean: 19.3 g
[1]; 154 h, Exp. 1
  Body Weight Change (%) Mean: 4.5%
  Food Consumption (g) Mean: 86.3 g
[1]; 154 h, Exp. 2
  Body Weight Change (%) Mean: 0.2%
  Food Consumption (g) Mean: 50.4 g
[1]; 324 h, Exp. 1
  Body Weight Change (%) Mean: 11.8%
  Food Consumption (g) Mean: 107.9 g
[1]; 324 h, Exp. 2
  Body Weight Change (%) Mean: 3.8%
  Food Consumption (g) Mean: 96.8 g
[1]; [4]
  Body Weight (Day 2) % Change vs Baseline: −7.65%
  Body Weight (g) (Day 2) Mean: 428.1 g
[1]; [5]
  Body Weight (Day 4) % Change vs Baseline: −5.3%
  Body Weight (g) (Day 4) Mean: 427.2 g
[1]; rats, 1 mg/kg s.c. single injection, day 0 to day 2
  Food Consumption (g) (day 0 to day 2) Mean: 5.03*** g
[1]; rats, 1 mg/kg s.c. single injection, day 0 to day 4
  Food Consumption (g) (day 0 to day 4) Mean: 55.73*** g
[2]; 0 to 27th day (FIG. 8)
  cumulative food intake vs diabetic control group: statistically significant reduction in food intake
[2]; Day 0 (before treatment)
  % HbA1c Mean: 5.05%
[2]; Day 27, vs Diabetic Control
  % HbA1c % Change vs DC: −2.26%
[2]; Day 27, s.c. 0.3 mg/kg qd*3, 0.1 mg/kg q2d*7, 0.1 mg/kg q4d*2
  % HbA1c Mean: 5.03*** %
[2]; day 0 to day 27 (FIG. 9)
  % change in body weight: −8%
[3]; 12.155 nM, q2d*15
  Blood Glucose AUC (Day 0-29) % Change Vs Control: −41.78%
  Blood Glucose AUC (Day 0-29) (mg/dL*days) Mean: 9867.9*** mg/dL*days
  Body Weight Change Day 29, % Change vs Day 0 Mean: 0.7%
  Cumulative Food Intake (g) Day 0-29 Mean: 92.0 g
[3]; Day 0, 12.15 nM, q2d*15
  % HbA1C Mean: 7.66%
  Insulin (ng/mL) Mean: 18.7 ng/mL
[3]; Day 14, 12.15 nM, q2d*15
  % HbA1C Mean: 7.04%
  Insulin (ng/mL) Mean: 37.5 ng/mL
[3]; Day 29, 12.15 nM, q2d*15
  % HbA1C Mean: 6.47 *** %
  Insulin (ng/mL) Mean: 48.1** ng/mL
[3]; [6]
  Blood Glucose AUC (Day 30-37) % Change vs Control: −15.58%
  Blood Glucose AUC (Day 30-37) (mg/dL*days) Mean: 3032.0 mg·days/dL
  Blood Glucose AUC (Day 38-45) % Change vs Control: −5.16%
  Blood Glucose AUC (Day 38-45) (mg/dL*days) Mean: 3415.7 mg·days/dL
[3]; [7]
  % HbA1C Mean: 7.8%
  Delta HbA1C vs. DC: −0.7
  Insulin (ng/mL) Mean: 19.7 ng/mL
[3]; recovery study, earlier dose 12.155 nM
  Body Weight % Change vs Day 45 Mean: 9.5%

From patent US11447535B2, “GLP-1 analogues” (Sun Pharmaceutical Industries Limited, priority 2018, dated 2022)
